Here are results for four compounds from patent US20180207164A1, “COMBINATION THERAPIES FOR TREATING CANCERS” (GILEAD SCIENCES, INC., priority 2015, published 2018).

The structures appear in SMILES notation.

In test [1] the test system is primary chronic lymphocytic leukemia (CLL) cells. The experiment in a line: Apoptosis induction in primary CLL cells with αIgM/αIgG/αCD40 stimulation, without HS-5 co-culture (Annexin V/Live-Dead flow cytometry). Type of test: cell-based, human. To be noted: for Maximal % Apoptosis: HS-5 (no co-culture), 66-72 hr post-compound addition, duplicate wells; for average maximal proportion of apoptotic cells: primary αIgM/αIgG/αCD40 stimulated CLL cells; for apoptosis observed in all CLL samples tested: at 30 nM. Here is the method: (§1) The HS-5 human stromal cell line was obtained from ATCC (American Tissue Type Collection). Cells were maintained in lymphocyte growth medium (LGM): RPMI-1640 supplemented with 10% FBS, 1% penicillin-streptomycin, 10 mM HEPES, 1 mM sodium pyruvate, 55 μM β-mercaptoethanol, and 2 mM GlutaMax. With informed consent, whole blood was obtained from CLL subjects.
(§2) Peripheral blood mononuclear cells (PBMCs) were prepared from human whole blood obtained from CLL patients by Ficoll-separation in CPT tubes according to manufacturer's directions (Becton Dickinson). Isolated PBMCs were cryopreserved in freezing medium (50% IMDM, 40% FBS, and 10% DMSO) and held in the gas phase of liquid nitrogen until use. One day prior to plating of primary CLL cells, wells of a U-bottom 96-well plate were coated with 3.0×10^4 HS-5 cells and allowed to adhere overnight in a humidified 37° C. incubator supplemented with 5% CO2. The % CD5+/CD19^+ cells isolated were quantified via FACS staining.
(§3) Frozen primary CLL PBMCs were thawed, washed once in LGM, and rested for 3-5 hours in LGM at 37° C. prior to plating. Cells were then centrifuged at room temperature for 10 minutes and resuspended at 1.0-2.5×10^5 cells/mL in LGM for plating. Assay wells were set up in U-bottom 96-well tissue culture plates in the absence or presence of HS-5 co-culture. Compounds were diluted as described below. Assay plates were incubated for 1 hour prior to stimulation with αIgM/αIgG (7.8 μg/well) and αCD40 (4 μg/well). Positive and negative controls were set up. Cells were incubated for 66-72 hours in a 37° C. CO2 incubator and assayed for apoptosis.
(§4) Compounds were diluted from 10 mM DMSO stock solutions. Compound combinations were prepared by transferring 2 μl each of the appropriate working compound solutions or vehicle to wells of a 96-well polypropylene plate. A daughter plate was made by 100× dilution into media. The final assay plate was made by 10× dilution into the final assay plate described above. The final DMSO concentration was 0.1%.
(§5) Cells were transferred to a deep well (2 mL) assay block and rinsed with 1 mL cation free PBS (PBS^−/−). Cells were resuspended in Invitrogen's aqua Live/Dead reagent according to manufacturer's instructions and incubated 30 minutes on ice. Aqua Live/Dead was quenched with an equal volume of PBS^+/+ and 4% FBS (FACS buffer). Cells were centrifuged and labeled with αCD5-PE, αCD19-BV421 and AnnexinV-APC in a total volume of 80 μL and incubated 30 minutes on ice. After labeling, cells were rinsed twice in FACS buffer and then fixed with BD Fixation buffer for 30 minutes on ice. Cells were rinsed twice with FACS buffer and analyzed.
(§6) The percentage of CD5^+/CD19^+ cells was quantified in the PBMCs to provide an assessment of the malignant cell population in each sample. To evaluate apoptosis, flow cytometric sampling of 50 μL cell suspensions (5,000-25,000 total events) were collected on a BD FACS Canto II instrument using a high throughput screen (HTS) autosampler. The CD5^+CD19^+ population was gated, and data were collected for the Annexin V^−/Live-Dead^−, AnnexinV^+/Live-Dead^−, AnnexinV^+/Live-Dead^+, and Annexin V^−/Live-Dead^+ CLL populations.
(§7) Annexin V^+/Live-Dead^− or Annexin V^−/Live-Dead^+ cells were gated and percentages of positive cells in each population were recorded for each well and data were extracted to a flow cytometry standard (fcs) file. Average percentages of Annexin V^+/Live-Dead^− and Annexin V^−/Live-Dead^+ were determined.
EC50 values were calculated based on log concentration of drug and percent Annexin V^+/Live-Dead^− and Annexin V^−/Live-Dead^+ cells using a 4 parameter nonlinear regression algorithm in Prism 6.01 of the GraphPad software (San Diego, Calif. USA, www.graphpad.com). Each run generated a single EC50 based on duplicate well values at each compound dilution. EC50 values and Hill slopes generated from each curve fit were reported. […]
Background: In flow cytometry, cells or beads pass a laser one at a time.

Test [2] has as its system primary CLL cells + HS-5 co-culture. In words: Apoptosis induction in primary CLL cells with αIgM/αIgG/αCD40 stimulation in HS-5 stromal cell co-culture. Type of test: cell-based, human. To be noted: for Maximal % Apoptosis: +HS-5, 1 μM compound, 66-72 hr post-compound addition, duplicate wells. Here is the method:
as §1, §2
One day prior to plating of primary CLL cells, wells of a U-bottom 96-well plate were coated with 3.0×10^4 HS-5 cells and allowed to adhere overnight in a humidified 37° C. incubator supplemented with 5% CO2.
as §3, §4, §5, §6, §7
EC50 values were calculated based on log concentration of drug and percent Annexin V^+/Live-Dead^− and Annexin V^−/Live-Dead^+ cells using a 4 parameter nonlinear regression algorithm in Prism 6.01 of the GraphPad software (San Diego, Calif. USA, www.graphpad.com). […]

A further test concerns CLL. To be noted: human, in vivo; cited from earlier work.

As to `CCC(Nc1ncnc2[nH]cnc12)c1nc2cccc(F)c2c(=O)n1-c1ccccc1` (stereo not shown) [Compound C1, 2-(1-((9H-Purin-6-yl)amino)propyl)-5-fluoro-3-phenylquinazolin-4(3H)-one], the “Maximal % Apoptosis” value was determined as 50.8% in test [1] (Donor 3, 1 μM compound); 60.1% in test [1] (Donor 4, 1 μM compound); 12.1% in test [1] (Donor 5, 1 μM compound); 15.0% in test [1] (Donor 6, 1 μM compound); 17.6% in test [1] (Donor 10, 1 μM compound); 15.2% in test [2] (Donor 3). Further, the “Maximal % Apoptosis” value in test [2] (Donor 4) is reported as 30.6%. Also, the “dose-responsive effect in inducing apoptosis” value in test [1] (primary CLL cells, single agent) was “dose-responsive effect”. Also, the “average maximal proportion of apoptotic cells” value in test [1] amounted to 23%.

For `CC#CC(=O)N1CC[C@@H](n2c(=O)n(-c3ccc(Oc4ccccc4)cc3)c3c(N)ncnc32)C1` [Compound A1, 6-amino-9-[(3R)-1-(2-butynoyl)-3-pyrrolidinyl]-7-(4-phenoxyphenyl)-7,9-dihydro-8H-purin-8-one], the average maximal apoptosis in test [1] (1 μM compound, αIgM/αIgG/αCD40 stimulated, 5 donors) was 21.1%. Also, the “Maximal % Apoptosis” value in test [1] (Donor 3, 1 μM compound) came out at 30.0%; in test [1] (Donor 4, 1 μM compound), 67.3%; in test [1] (Donor 5, 1 μM compound), 10.4%; in test [1] (Donor 6, 1 μM compound), 14.1%; in test [1] (Donor 10, 1 μM compound), 20.0%; in test [2] (Donor 3), 10.1%. Further, in test [2] (Donor 4), the “Maximal % Apoptosis” value was 45.5%. Besides, the EC50 (as a rule, the concentration that produces a half-maximal response) in test [1] (Homo sapiens, CLL cell, primary CLL cells stimulated with αIgM/αIgG/αCD40, N=4, 66-72 h, read-out: geometric mean EC50 (±standard deviation) for induction of apoptosis) worked out at 27.2 ± 11.3 nM. The “apoptosis levels versus background in the presence of HS-5 co-culture” value in test [2] (HS-5 co-culture, 5 donors tested, mean EC50 not reported) is reported as “generally not increased above background in 3/5 donors tested”.

For `CC1(C)CCC(CN2CCN(c3ccc(C(=O)NS(=O)(=O)c4ccc(NCC5CCOCC5)c([N+](=O)[O-])c4)c(Oc4cnc5[nH]ccc5c4)c3)CC2)=C(c2ccc(Cl)cc2)C1` [Compound B1, 4-[4-[[2-(4-chlorophenyl)-4,4-dimethyl-1-cyclohexen-1-yl]methyl]-1-piperazinyl]-N-[[3-nitro-4-[[(tetrahydro-2H-pyran-4-yl)methyl]amino]phenyl]sulfonyl]-2-(1H-pyrrolo[2,3-b]pyridin-5-yloxy)-benzamide], the “Maximal % Apoptosis” value in test [1] (Donor 3, 1 μM compound) is given as 66.1%; in test [1] (Donor 4, 1 μM compound) it was 87.3%; in test [1] (Donor 5, 1 μM compound), 38.3%; in test [1] (Donor 6, 1 μM compound), 31.6%; in test [1] (Donor 10, 1 μM compound) it was 35.8%; in test [2] (Donor 3), 30.8%. In addition, the “Maximal % Apoptosis” value in test [2] (Donor 4) amounted to 80.8%. Further, in test [1], the “apoptosis observed in all CLL samples tested” value is reported as > 60%. Also, the “average maximal proportion of apoptotic cells” value in test [1] came out at 91.4%. In addition, in the test on CLL, the “clinical efficacy in CLL” value was “clinical efficacy in CLL”.

In the case of `c1cn2cc(-c3ccc4cn[nH]c4c3)nc(Nc3ccc(N4CCOCC4)cc3)c2n1` [Compound D1, 6-(1H-indazol-6-yl)-N-(4-morpholinophenyl)imidazo[1,2-a]pyrazin-8-amine], the “apoptosis observed in all CLL samples tested” value in test [1] is > 60%. Further, in the test with CLL, the “clinical efficacy in CLL” value is on record as “clinical efficacy in CLL”.
